In the experiment the target is c-Myc template DNA (c-myc quadruplex). Kind of experiment: Quadruplex binding / stop assay (Taq polymerase arrest, capillary electrophoresis).
Setting [1] is: read-out: S DATA, Table 1D, stop assay data.
Setting [2] is: read-out: Stop Data c-Myc μM, concentration at which 50% of the DNA was arrested (arrested:full-length 1:1).

Our source for the IC50 values is patent US7507727B2, “Substituted quinobenzoxazine analogs and methods of using thereof” (Cylene Pharmaceuticals, Inc., priority 2003, dated 2009).

Like-named read-outs stand apart in the source and are kept apart here. Where only a bound is given, the exact number is not on record here.

On to `O=C(NCCN1CCCC1)c1cn2c3c(c(N4CC5CCCNC5C4)ccc3c1=O)Oc1ccccc1-2` (centres unmarked) [compound 1731], for which the IC50 under setting [1] was above 15 µM. For the molecule `CCCCN1CCC(CNc2c(F)cc3c(=O)c(C(=O)NCCC4CCCN4C)cn4c3c2Oc2cc3ccccc3cc2-4)CC1` (centres unmarked) [compound 336], the IC50 under setting [2] was found to be 1 µM. With `O=C(O)c1cn2c3c(c(N4CC5CCCNC5C4)c(F)cc3c1=O)Oc1cc3ccccc3cc1-2` (centres unmarked) [compound 23], the IC50 under setting [2] worked out at 0.75 µM.

As for `CN1CCCC1CCNc1c(F)cc2c(=O)c(C(=O)NCCCN3CCOCC3)cn3c2c1Oc1c-3ccc2ccccc12` (centres unmarked) [compound 476], under setting [2], the IC50 worked out at 0.58 µM. Regarding `CN1CCN(CCCNc2c(F)cc3c(=O)c(C(=O)N4CCC(N)C4)cn4c5cc6c(=O)c7ccccc7c(=O)c6cc5oc2c34)CC1` (centres unmarked) [compound 95], the IC50 under setting [2] stood at 2.5 µM. `CC(C)(C)OC(=O)N[C@@H]1CCN(c2c(F)cc3c(=O)c(C(=O)NCCCCN)cn4c3c2Oc2cc3ccccc3cc2-4)C1` [compound 210]: the IC50 under setting [2] worked out at 1.75 µM.

As to `CN1CCN(CCCNc2c(F)cc3c(=O)c(C(=O)N4CCC(NC(=O)OC(C)(C)C)C4)cn4c3c2Oc2ccccc2-4)CC1` (centres unmarked) [compound 1575], the IC50 under setting [1] was above 15 µM. On the same count and under the same terms, under `CC1(C)CC(NC(=O)c2cn3c4c(c(N5CCC(NC(=O)OC(C)(C)C)C5)c(F)cc4c2=O)Oc2ccccc2-3)CC(C)(C)N1` (centres unmarked) [compound 1591] stands above 15 µM.

For `CN(C)CCCCNC(=O)c1cn2c3c(c(N)c(F)c(NCCCN4CCOCC4)c3c1=O)Oc1cc3ccccc3cc1-2` [compound 192], the IC50 under setting [2] was 1.75 µM.

For the molecule `O=C(NCCN1CCCC1)c1cn2c3c(c(NCCN4CCOCC4)c(F)cc3c1=O)Oc1cc3ccccc3cc1-2` [compound 58], the IC50 under setting [2] was found to be 2.5 µM. In the case of `CN1CCCC1CCNC(=O)c1cn2c3c(c(SCCc4ccccn4)c(F)cc3c1=O)Oc1cc3ccccc3cc1-2` (centres unmarked) [compound 1781], under setting [1], the IC50 was determined as 5.5 µM.

In the case of `CN1CCN(C(=O)c2cn3c4c(c(NCCC5CCCN5C)c(F)cc4c2=O)Oc2c-3ccc3ccccc23)CC1` (centres unmarked) [compound 75], the IC50 under setting [2] worked out at 2.5 µM. Still for that read-out and setting: under `CN1CCN(CCCNC(=O)c2cn3c4c(c(N5CCC(N)C5)c(F)c(N)c4c2=O)Oc2cc4ccccc4cc2-3)CC1` (centres unmarked) [compound 240] stands 1.75 µM; under `O=C(NCCN1CCCC1)c1cn2c3c(c(NCCN4CCCC4)c(F)cc3c1=O)Oc1cc3ccccc3cc1-2` [compound 74], 2.5 µM. For `O=C(NCCN1CCOCC1)c1cn2c3c(c(N4CCC(c5cnccn5)C4)c(F)cc3c1=O)Oc1cc(Cl)ccc1-2` (centres unmarked) [compound 1790], the IC50 under setting [1] was above 15 µM. Regarding `CN1CCCC1CCNc1ccc2c(=O)c(C(=O)NCCCN3CCOCC3)cn3c2c1Oc1cc2ccccc2cc1-3` (centres unmarked) [compound 1524], the IC50 under setting [1] is 1.75 µM. As for `CN1CCN(CCCNC(=O)c2cn3c4cc5c(=O)c6ccccc6c(=O)c5cc4oc4c(N5CCC(NC(=O)OC(C)(C)C)C5)c(F)cc(c2=O)c43)CC1` (centres unmarked) [compound 169], under setting [2], the IC50 was determined as 1.75 µM. Turning to `CC1(C)CC(NC(=O)c2cn3c4c(c(N5CCC(N)C5)c(F)cc4c2=O)Oc2cc4ccccc4cc2-3)CC(C)(C)N1` (centres unmarked) [compound 445], under setting [2], the IC50 turned out to be 0.75 µM.

Take `N[C@@H]1CCN(C(=O)c2cn3c4c(c(NCCN5CCOCC5)c(F)cc4c2=O)Oc2c-3ccc3ccccc23)C1` [compound 84]: the IC50 under setting [2] was 2.5 µM. Same read-out and setting: with `N=C(N)NCC1CCCC(CNC(=O)c2cn3c4c(c(N5CCC(N)C5)c(F)cc4c2=O)Oc2cc4ccccc4cc2-3)C1` (centres unmarked) [compound 560] the figure was 0.37 µM. Consider `CC(C)N1CCN(c2c(F)cc3c(=O)c(C(=O)NCCN4CCOCC4)cn4c3c2Oc2ccccc2-4)CC1` [compound 1562], for which the IC50 under setting [1] is above 15 µM. The same measure, in the same setting: with `NCCCCNC(=O)c1cn2c3c(c(NCCN4CCOCC4)c(F)cc3c1=O)Oc1ccccc1-2` [compound 1611] the figure was above 15 µM. The same measure, in the same setting: with `CN1CCCC1CCNC(=O)c1cn2c3c(c(/N=C4\CCCCN4)c(F)cc3c1=O)Oc1cc3ccccc3cc1-2` (centres unmarked) [compound 1482] the figure was 1.75 µM; with `CN(C)CCCCNC(=O)c1cn2c3c(c(NCCC4CCCN4C)ccc3c1=O)Oc1cc3ccccc3cc1-2` (centres unmarked) [compound 1526], 0.75 µM. For the molecule `CC(=O)N[C@@H]1CCN(c2c(F)cc3c(=O)c(C(=O)NCCCN4CCN(C)CC4)cn4c3c2Oc2cc3c(cc2-4)oc2ccccc23)C1` [compound 179], the IC50 under setting [2] amounted to 1.75 µM.

With `CC(CNc1c(F)cc2c(=O)c(C(=O)NCCC3CCCN3C)cn3c2c1Oc1cc2ccccc2cc1-3)c1ccccc1` (centres unmarked) [compound 1662], the IC50 under setting [1] came to 1.75 µM.

Consider `COc1ccc(CCNc2c(F)cc3c(=O)c(C(=O)NCCC4CCCN4C)cn4c3c2Oc2cc3ccccc3cc2-4)cc1OC` (centres unmarked) [compound 1757], for which, under setting [1], the IC50 was 9.8 µM. `O=C(NCCCN1CCOCC1)c1cn2c3c(c(NCCN4CCCC4)c(F)cc3c1=O)Oc1ccccc1-2` [compound 1592]: the IC50 under setting [1] was above 15 µM.

In the case of `O=C(NCCN1CCOCC1)c1cn2c3cc4c(cc3oc3c(NCCN5CCOCC5)c(F)cc(c1=O)c32)c(=O)c1ccccc14` [compound 321], the IC50 under setting [2] worked out at 1 µM. As for `CN1CCCC1CCNC(=O)c1cn2c3c(c(NCC4CC(C)(C)N(O)C4(C)C)c(F)cc3c1=O)Oc1cc3ccccc3cc1-2` (centres unmarked) [compound 1668], under setting [1], the IC50 was determined as 0.375 µM. On to `CN1CCN(CCCNc2c(F)cc3c(=O)c(C(=O)NCCC4CCCN4C)cn4c3c2Oc2cc3ccccc3cc2-4)CC1` (centres unmarked) [compound 394], for which the IC50 under setting [2] was 0.75 µM. On to `O=C(NCCCN1CCOCC1)c1cn2c3c(c(NCCN4CCOCC4)c(F)cc3c1=O)Oc1ccccc1-2` [compound 1604], for which the IC50 under setting [1] was above 15 µM. For the molecule `NC1CCN(C(=O)c2cn3c4cc5c(=O)c6ccccc6c(=O)c5cc4oc4c(NCCCN5CCOCC5)c(F)cc(c2=O)c43)C1` (centres unmarked) [compound 94], under setting [2], the IC50 was 2.5 µM. `CC(C)(C)OC(=O)NC1CCN(c2c(F)cc3c(=O)c(C(=O)NCC[N+](C)(C)C)cn4c3c2Oc2cc3ccccc3cc2-4)C1` (centres unmarked) [compound 188]: the IC50 under setting [2] was found to be 1.75 µM. The same measure, in the same setting: under `O=C(NCCCn1ccnc1)c1cn2c3c(c(NCCN4CCCC4)c(F)cc3c1=O)Oc1c-2ccc2ccccc12` [compound 140] stands 1.75 µM; under `CN1CCCC1CCNc1c(F)cc2c(=O)c(C(=O)NCCN3CCCC3)cn3c2c1Oc1cc2c(cc1-3)oc1ccccc12` (centres unmarked) [compound 87], 2.5 µM; under `CC1(C)CC(NC(=O)c2cn3c4c(c(NCCN5CCCC5)ccc4c2=O)Oc2cc4ccccc4cc2-3)CC(C)(C)N1` [compound 447], 0.75 µM.

With `CN(C)CCCCNC(=O)c1cn2c3c(c(NCCC4CCCN4C)ccc3c1=O)Oc1cc3ccccc3cc1-2` (centres unmarked) [compound 450], the IC50 under setting [2] worked out at 0.75 µM.

Consider `CN1CCCC1CCNc1c(F)cc2c(=O)c(C(=O)O)cn3c4cc5oc6cc(N)ccc6[nH]c5cc4oc1c23` (centres unmarked) [compound 20], for which the IC50 under setting [2] turned out to be 0.75 µM. In the case of `CN1CCN(CCCNC(=O)c2cn3c4c(c(NCCN5CCCC5)c(F)cc4c2=O)Oc2ccccc2-3)CC1` [compound 1594], under setting [1], the IC50 was above 15 µM. As for `CC1CCCC(C)N1CCCNC(=O)c1cn2c3c(c(N4CCC(N)C4)c(F)cc3c1=O)Oc1cc3ccccc3cc1-2` (centres unmarked) [compound 337], the IC50 under setting [2] is 1 µM.

For the molecule `CN(C)CCCCNC(=O)c1cn2c3c(c(N4CC[C@@H](NC(=O)CCN5CCOCC5)C4)c(F)cc3c1=O)Oc1cc3c(cc1-2)oc1ccccc13` [compound 176], the IC50 under setting [2] is 1.75 µM. Still for that read-out and setting: under `CN1CCN(c2c(F)cc3c(=O)c(C(=O)NCCCN4CCOCC4)cn4c5cc6c(=O)c7ccccc7c(=O)c6cc5oc2c34)CC1` [compound 172] stands 1.75 µM; under `CN(C)CCCCNc1ccc2c(=O)c(C(=O)NCCN3CCOCC3)cn3c2c1Oc1cc2ccccc2cc1-3` [compound 453], 0.75 µM; under `CN1CCN(CCCNC(=O)c2cn3c4c(c(NCCN5CCOCC5)c(F)cc4c2=O)Oc2cc4c(cc2-3)oc2ccccc24)CC1` [compound 146], 1.75 µM. For the molecule `CN1CCN(CCCNc2c(F)cc3c(=O)c(C(=O)NCCCN4CCOCC4)cn4c3c2Oc2cc3ccccc3cc2-4)CC1` [compound 119], the IC50 under setting [2] came out at 1.75 µM. The same measure, in the same setting: with `CN(C)CCCCNC(=O)c1cn2c3c(c(NCCCN4CCOCC4)c(F)cc3c1=O)Oc1c-2ccc2ccccc12` [compound 129] the figure was 1.75 µM. `CC(C)(C)OC(=O)NC1CCN(c2c(F)c(N)c3c(=O)c(C(=O)NCCN4CCOCC4)cn4c3c2Oc2cc3ccccc3cc2-4)C1` (centres unmarked) [compound 229]: the IC50 under setting [2] is 1.75 µM. Turning to `CC(CNC(=O)c1cn2c3c(c(N4CCC(N)C4)c(F)cc3c1=O)Oc1cc3ccccc3cc1-2)c1ccccc1` (centres unmarked) [compound 1695], the IC50 under setting [1] was above 15 µM. `O=C(NCCN1CCOCC1)c1cn2c3cc4c(cc3oc3c(NCCN5CCCC5)c(F)cc(c1=O)c32)c(=O)c1ccccc14` [compound 424]: under setting [2], the IC50 was 0.75 µM.

As to `CN1CCC[C@H]1CCNC(=O)c1cn2c3c(c(N4CCC(c5cnccn5)C4)c(F)cc3c1=O)Oc1cc3ccccc3cc1-2` (some centres unmarked) [compound 339], the IC50 under setting [2] amounted to 0.94 µM. In the case of `CN(C)CCCCNc1ccc2c(=O)c(C(=O)NCCN3CCOCC3)cn3c2c1Oc1cc2ccccc2cc1-3` [compound 1545], the IC50 under setting [1] turned out to be 0.75 µM.

Regarding `CCN(CC)CCCC(C)NC(=O)c1cn2c3c(c(N4CC5CCCNC5C4)ccc3c1=O)Oc1cc3ccccc3cc1-2` (centres unmarked) [compound 1733], under setting [1], the IC50 was above 15 µM. Take `CN(C)CCCCNc1c(F)cc2c(=O)c(C(=O)NCCC3CCCN3C)cn3c4cc5c(=O)c6ccccc6c(=O)c5cc4oc1c23` (centres unmarked) [compound 354]: under setting [2], the IC50 is 0.9 µM. For the molecule `NC1CCN(c2c(F)cc3c(=O)c(C(=O)NCCCN4CCCC4=O)cn4c3c2Oc2cc3ccccc3cc2-4)C1` (centres unmarked) [compound 1694], under setting [1], the IC50 was above 15 µM. Regarding `NC1CCN(c2c(F)cc3c(=O)c(C(=O)NCC(O)CO)cn4c3c2Oc2cc3ccccc3cc2-4)C1` (centres unmarked) [compound 300], under setting [2], the IC50 was found to be 1.75 µM. On to `O=C(NCCN1CCCC1)c1cn2c3c(c(N4CCN(Cc5ccsc5)CC4)c(F)cc3c1=O)Oc1cc(Cl)ccc1-2` [compound 1831], for which the IC50 under setting [1] amounted to 9.8 µM. As for `CN1CCN(CCCNC(=O)c2cn3c4c(c(N5CC[C@@H](NC(=O)OC(C)(C)C)C5)c(F)cc4c2=O)Oc2cc4ccccc4cc2-3)CC1` [compound 64], the IC50 under setting [2] came out at 2.5 µM. Same read-out and setting: with `CN1CCN(CCCNc2c(F)cc3c(=O)c(C(=O)O)cn4c3c2Oc2cc3ccccc3cc2-4)CC1` [compound 398] the figure was 0.75 µM.
